Test results published in patent publication US12172988B2, “Anticancer and antifungal splice modulators” (priority 2021, dated 2024).

Key:
HCT116 tumor cells = assay: qPCR structure-splicing profile over the gene panel; assay type: cell-based, human; settings: HCT116, 24 h, 100, 250, 500 nM, compared to 1
Procedure: (§1) HCT116 tumor cells were treated with analogues at 100 nM (light grey), 250 nM (grey), or 500 nM (black) for 24 h and then cellular RNA was isolated and purified for qPCR. Primers were designed to evaluate intron retention or exon skipping, direct responses to splice modulator treatment. Genes evaluated included those involved in splicing regulation (SF3A1, SF3A3, SF3B1, SF3B2), apoptosis (MCL-1L), and protein folding (DNAJB1), relative to the unspliced control GAPDH. For alternative splicing regulator (SF2), primers were designed to evaluate gene expression, which changes in response splice modulator treatment for SF2 relative to the unspliced control GAPDH. (—) denotes untreated cells.
(§2) For these studies, we evaluated the expression of genes involved in splicing regulation (SF3A1, SF3A3, SF3B1, SF3B2), apoptosis (MCL-1L), protein folding (DNAJB1), and cell cycle regulation (AURKA, PLK-1) relative to the unspliced control GAPDH. Primers were designed to evaluate intron retention or exon skipping, direct responses to splice modulator treatment. The master splicing regulator alternative splicing factor (SF2) was also evaluated, with the primers for this gene designed to evaluate overall gene expression, which changes in response to splice modulator treatment.
(§3) From this 4 h study (FIG. 14), a small set of analogs (1, 1b, 1g, 1d, 1e, 1i and 1j) were selected to evaluate if effects on splicing when presented for a longer 24 h period. […] Using identical procedures as that used for 4 h, HCT116 cells were treated with three concentrations (100 nM, 250 nM and 500 nM) of each analog for 24 h. Multiple concentrations were used as a means to check further validate the use of the GI50 concentration in our prior study (FIG. 14). As before, none of the concentrations tested led to significant changes in cell viability over the 24-hour time window, ensuring that changes in gene expression were not due to cell death.
Cells were treated with 1 or 1a-1j in media (McCoy's 5a (Life Technologies) supplemented with 10% FBS, 2 mM L-glutamine, and 100 U mL^−1 of penicillin and 100 μg mL^−1 of streptomycin 0.5% DMSO) for 4 h or 24 h. Untreated cells were considered were used as negative control. Total RNA was isolated using mirVana miRNA isolation kit (Life Technologies). A 1 μg sample of RNA was subjected to DNAseI from a TURBO DNA free kit (Life Technologies). The cDNA was prepared by using SuperScript III reverse transcriptase kit (Life Technologies). The amount of unspliced RNA for different genes was determined using Power SYBR Green PCR master mix (Applied Biosystems) by qPCR using specific primers for each gene. qPCR using 2.5 μM of each primer was performed on 5 ng of the obtained cDNA. qPCR conditions were as follows: 95° C. for 10 min for one cycle, then 95° C. for 10 min for one cycle, then 95° C. for 30 s, 55° C. for 60 s, 72° C. for 60 s, for 40 cycles using the MXPro. Quantification cycle (Cq) values were identified for each sample, and then RNA levels were calculated using 2-ΔΔCT method. GAPDH was used as a control for normalization. At least three replicates were conducted for each compound. Namely, all genes explored in this study were evaluated from the same cell cultures. Here, individual cultures were used for each compound explored and at least three replicates were used for each compound. While experimental variation occurred between the different compound treatments, the levels of the different intron retention, exon skipping or RNA expression were collected from the same cellular material. Statistics were calculated using a standard one-way ANOVA; p values were represented so that * signifies p<0.0001. HCT116 were treated with analogs 1-1j ranging from 0.1-5000 nM for 72 hours, then cell viability was measured using the MTS assay. GI50 values and confidence intervals were calculated using GraphPad (Table 12).

PLK-1 = assay: qPCR splicing analysis, PLK-1 exon skipping / RNA expression; assay type: cell-based, human; settings: for PLK-1 RNA expression: HCT116, 24 h, 100, 250, 500 nM
Procedure: as §1, with “each analogue” for “analogues”, “20 times the G150 value (Table 12)” for “100 nM (light grey), 250 nM (grey), or 500 nM (black)”, “4 hours” for “24 h”, “(MCL-1L),” for “(MCL-1L), and”, “(DNAJB1), and cell cycle regulation (AURKA, PLK-1)” for “(DNAJB1),”, “(−)” for “(—)”
Next, we turned our efforts to explore the ability of these analogues to modulate splicing. […] We treated cells for 4 h so that we could evaluate early changes in splicing activity, and then cellular RNA was isolated and purified for analyses by qPCR (FIG. 14). Most importantly, none of the concentrations tested led to significant changes in cell viability, ensuring that changes in gene expression were not due to cell death.
as §2, §3
Cells were treated with 1 or 1a-1j in media (McCoy's 5a (Life Technologies) supplemented with 10% FBS, 2 mM L-glutamine, and 100 U mL^−1 of penicillin and 100 μg mL^−1 of streptomycin 0.5% DMSO) for 4 h or 24 h. Untreated cells were considered were used as negative control. Total RNA was isolated using mirVana miRNA isolation kit (Life Technologies). A 1 μg sample of RNA was subjected to DNAseI from a TURBO DNA free kit (Life Technologies). […] The amount of unspliced RNA for different genes was determined using Power SYBR Green PCR master mix (Applied Biosystems) by qPCR using specific primers for each gene. qPCR using 2.5 μM of each primer was performed on 5 ng of the obtained cDNA. qPCR conditions were as follows: 95° C. for 10 min for one cycle, then 95° C. for 10 min for one cycle, then 95° C. for 30 s, 55° C. for 60 s, 72° C. for 60 s, for 40 cycles using the MXPro. Quantification cycle (Cq) values were identified for each sample, and then RNA levels were calculated using 2-ΔΔCT method. […] Namely, all genes explored in this study were evaluated from the same cell cultures. […]

| Structure (SMILES) | splicing activity over the genes tested (HCT116 tumor cells) | effect on exon 3 inclusion in PLK-1 (PLK-1; HCT116, 4 h, 20 times GI50, qPCR) | PLK-1 RNA expression (PLK-1) |
| --- | --- | --- | --- |
| CC[C@@H](OC)[C@H](C)[C@H]1O[C@@H]1[C@@H](O)[C@H](C)/C=C/C=C(\C)[C@H]1OC(=O)C[C@H](O)CC[C@@](C)(O)[C@@H](OC(C)=O)/C=C/[C@@H]1C [Analog 1j, 17S,20S,21R-FD-895] | splicing profile comparable to 1i |  |  |
| CC[C@H](OC)[C@@H](C)[C@H]1O[C@@H]1[C@@H](O)[C@H](C)/C=C/C=C(\C)[C@H]1OC(=O)C[C@@H](O)CC[C@@](C)(O)[C@@H](OC(C)=O)/C=C/[C@@H]1C [Analog 1g, 3S,17S-FD-895] |  | most potent effect | reduced PLK-1 RNA expression |
| CC[C@H](OC)[C@@H](C)[C@@H]1O[C@H]1[C@@H](O)[C@H](C)/C=C/C=C(\C)[C@H]1OC(=O)C[C@H](O)CC[C@@](C)(O)[C@@H](OC(C)=O)/C=C/[C@@H]1C [Analog 1i, 17S,18S,19S-FD-895] | drastic reduction in splicing activity |  | increased the RNA expression relative to negative controls |
| CC[C@H](OC)[C@@H](C)[C@H]1O[C@@H]1[C@@H](O)[C@H](C)/C=C/C=C(\C)[C@H]1OC(=O)C[C@H](O)CC[C@@](C)(O)[C@@H](OC(C)=O)/C=C/[C@@H]1C [Analog 1d, 17S-FD-895] | modest switch in gene selectivity |  | decreased effect at reducing |
